Test results from the METLIN SMRT retention time set (Domingo-Almenara et al. 2019).

Assay: gradient 5% acetonitrile 3 min, to 50% in 2 min, to 85% in 15 min, held 3 min, 100 µL/min
Conditions: column: Zorbax Extend-C18 2.1 x 50 mm; eluents: water / acetonitrile, 0.1% formic acid
Procedure, shortened: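 Values are retention times taken from adduct peaks that software picked and an analyst inspected. The pure standards were run as mixtures of ~100 molecules on HPLC linked to a quadrupole time-of-flight mass spectrometer, in positive and negative ionization mode. A Zorbax Extend-C18 column (2.1 × 50 mm, 1.8 μm) was used at 100 μL/min with water and acetonitrile, each including 0.1% formic acid.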

Structure (SMILES) | RP-LC retention time [s]
CCCC(=O)Nc1cccc(NC(=O)c2ccccc2Br)c1 | 863
COc1cc2ncnc(Nc3ccc(NC(=O)c4ccccc4)cc3)c2cc1OC | 687
NC(=O)c1oc2ccccc2c1NC(=O)c1coc2ccccc2c1=O | 769
CCCCS(=O)(=O)Nc1ccc2c(c1)nc(-c1ccc(C(=O)NCCC)cc1)n2C | 660
CCN1CCCn2nc(C3CCN(C(=O)c4cncc(Br)c4)CC3)cc2C1=O | 659
COC(=O)C1=CN(c2ccc(F)cc2)c2ccc(F)cc2S1(=O)=O | 847
CCOc1ccc(NC(=O)C2CCN(S(=O)(=O)c3ccc4c(c3)sc(=O)n4CC)CC2)cc1 | 924
N#Cc1cccc(CN2CCC(c3nncn3-c3ccccc3)CC2)c1 | 584
O=C(NC1CCCCCCC1)C1CCCN(S(=O)(=O)c2c[nH]c(C(=O)N3CCCCCC3)c2)C1 (stereo unspecified) | 980
Cc1noc(C)c1CC(=O)NCCn1ncc2c(=O)n(Cc3ccc(F)cc3)cnc21 | 640
CCCn1c(=O)c(N2CCC(NC(=O)NCc3cccc(F)c3)CC2)nc2ccccc21 | 959
Cc1ccc(C)c(NC(=O)Nc2c(-c3ccc(F)cc3)nc3ccccn23)c1 | 697
CCCc1nnsc1C(=O)Nc1nnc(-c2cc3cccc(OC)c3o2)o1 | 1170
COC(=O)c1ccc(NC(=O)Cn2cccc(-c3nc(-c4ccc(F)cc4)no3)c2=O)cc1 | 877
CCN1C(=O)C(CC(=O)NCCCOC)Sc2ncccc21 (stereo unspecified) | 620
O=C(CSCc1ccccc1)Nc1cccc(-c2cn3cccnc3n2)c1 | 640
COc1cc(NCc2ccccc2O)c2ncccc2c1 | 758
Cc1ccc(-c2nnc(Cc3nc(-c4cccnc4)no3)o2)cc1F | 812
COc1ccc(CC(=O)NCc2ccc3c(c2)ncn3C(C)C)cc1 | 600
CN1CCN(C(CNS(=O)(=O)c2ccccc2F)c2ccsc2)CC1 (stereo unspecified) | 570
CC(C)NC(=O)N1CCCC(c2cccc(C(=O)NCCN3CCOCC3)c2)C1 (stereo unspecified) | 591
COc1ccc(C(=O)N2CCC(COc3ccc(C(=O)NC4CC4)cc3)CC2)cc1F | 798

Structure (SMILES) | RP-LC retention time [s]
CCOc1cccc(C2c3[nH]c4ccccc4c3CCN2C(=O)c2ccnn2C)c1 (stereo unspecified) | 1050
O=S(=O)(c1ccc(F)cc1)N1CCC2(CC1)NCCN=C2NCc1cccc(F)c1 | 691
Cc1cccc(S(=O)(=O)N2CCCC(C)(C(=O)NCc3cccc(F)c3)C2)c1 (stereo unspecified) | 972
c1csc(-c2nc(-c3ccnc(N4CCCC4)c3)no2)c1 | 665
Cn1cc(-c2ccc(F)cc2)cc1C(=O)NCCN1CCCCC1 | 672
COc1ccccc1NC(=O)Cn1nc(N2CCOCC2)c2ccccc2c1=O | 819
COc1ccc(CCNC(=O)Cc2csc3nc(-c4ccc(OC)c(OC)c4)cn23)cc1OC | 661
CCCNC(=O)N1CCCC1c1nc(-c2ccccc2C)no1 (stereo unspecified) | 863
CCC(Sc1nc2ccccc2[nH]1)C(=O)Nc1nnc(C)s1 (stereo unspecified) | 689
CCOC(=O)C1=C(C)NC(=O)NC1c1nc2ccccc2n1CC (stereo unspecified) | 597
COc1ccccc1CCC(=O)NC(C)C(=O)Nc1nc2ccccc2[nH]1 (stereo unspecified) | 658
Cc1ccc(C)c(N2CCN(c3ccnc(SCC(=O)NC(C)CCc4ccccc4)n3)CC2)c1 (stereo unspecified) | 1020
COC(=O)c1ccc(Cl)cc1NC(=O)COc1nc(C)nc2ccccc12 | 920
CCOc1ccc2nc(NC(=O)c3cc(=O)c(OCc4ccccc4)cn3C)sc2c1 | 741
CCOc1coc(C(=O)Nc2cccc(F)c2)cc1=O | 695
COc1ccc(-c2noc(C3CCCN3C(=O)Nc3ccccc3C(F)(F)F)n2)cc1 (stereo unspecified) | 1010
COc1ccc(S(=O)(=O)N2CC3CN(C(=O)c4cc(C)oc4C)CC(C2)O3)cc1 | 785
Cc1ccc(C)c(S(=O)(=O)N2CCc3c(c(-c4nnc(-c5ccc(F)cc5)o4)nn3C)C2)c1 | 1040
COc1ccc2c(c1)-c1nc(NC(=O)c3cccc(F)c3)sc1CC2 | 1120
O=C(Cn1ccn2nc(-c3ccccc3)c(CO)c2c1=O)Nc1ccc(Cl)cc1F | 869
O=C(NC1CC1)C1(F)CCN(S(=O)(=O)c2ccccc2)CC1 | 673
CC1CCn2c(nc3cc(C(=O)N4CCN(c5ncccn5)CC4)ccc32)C1 (stereo unspecified) | 593

Structure (SMILES) | RP-LC retention time [s]
COCCOc1ccc(N2CCN(CCn3ncc4c3nc(N)n3nc(-c5ccco5)nc43)CC2)cc1 | 665
CCOc1ccc(-c2[nH]ncc2CNS(=O)(=O)c2ccccc2CC)cc1 | 884
CCN(Cc1ccc(Cl)cc1)Cc1cc(=O)n2ccc(C)cc2n1 | 634
O=C(Nc1nc(CC(=O)N2CCn3c2nc2ccccc23)cs1)c1ccsc1 | 657
O=C(NC1CCCCC1)N1CCC(c2noc(-c3ccccn3)n2)C1 (stereo unspecified) | 734
Cc1ccc(N2CCN(C(=O)c3cn4cc(C)ccc4n3)CC2)cc1 | 690
CCN1C(=O)c2cc(C(=O)NCc3ccccc3F)nn2CC1(C)C(=O)NC1CCCC1 (stereo unspecified) | 659
Cc1ccccc1C(=O)NCCc1cn(CC(C)C)c2ncccc12 | 808
COc1cccc(C(O)CN2CCN(c3cccc(C)c3C)CC2)c1 (stereo unspecified) | 614
CC1(C)C(=O)Nc2ccc(S(=O)(=O)N3CCC(c4noc(-c5ccccn5)n4)C3)cc21 (stereo unspecified) | 705
CCOC(=O)N1CCN(C(=O)c2cccc([N+](=O)[O-])c2C)CC1 | 695
COc1ccc(OC)c(CNC(=O)C2CCCN(c3ccc(=O)n(-c4ccc(C)c(Cl)c4)n3)C2)c1 (stereo unspecified) | 924
Cc1nn(-c2ccc(N3CCCC3)nn2)c(C)c1CCC(=O)N1CCN(c2ccccn2)CC1 | 546
C/C(=N\NC(N)=O)c1ccc(Cl)c(-n2cccc2)c1 | 855
O=C(NOCC1CC1)c1cc(Br)c(F)c(F)c1Nc1ccc(I)cc1Cl | 1170
CC(C)c1cccc(NC(=O)Cn2nc3n(c2=O)CCCCC3)c1 | 700
N#Cc1cccc(S(=O)(=O)N2CCc3nc(-c4ccc(F)cc4)ncc3C2)c1 | 1030
NC(=O)c1n[nH]c2c1CCCCCC2 | 644
Cc1ccc(CS(=O)(=O)Nc2ccc3c(c2)nc(-c2ccc(C(=O)NC(C)C)cc2)n3C)cc1 | 702
O=C(NCc1ccccc1F)C1CCN(c2cc(N3CCCCC3)ncn2)CC1 | 680
CCOC(=O)CCNC(=O)N1CCc2cc(-c3ccc(C(=O)N4CCOCC4)cc3)ccc21 | 724
O=C1CCC2(C(=O)N3CCN(c4ccccn4)CC3)CCC=C2N1C1CCCC1 (stereo unspecified) | 579
